Measured values as given in patent US20250009742A1 (priority 2021, published 2025).

Experiments:
[1] = tested on: intracellular HBV DNA; test: Real-time PCR for intracellular HBV DNA in HepAD38 cells; format: cell-based; settings: Hepatitis B virus, HePAD38, 65 h, 65 hours treatment
[2] = Cell viability assay (EZ-Cytox), cytotoxicity; format: cell-based; settings: human, HepAD38 cells; for viability at 65 h, 100 µM: read-out: Cytotoxicity % Livability (@100 μM)
Procedure: HepAD38 cells were cultured for 2 days in Dulbecco's Modified Eagle's medium (Welgene, LM001-05) supplemented with 10% FBS without tetracycline. […] After 65 hours of treatment, viability was measured using EZ-Cytox cell viability assay kit (Daeil Lab Service) according to the manufacturer's instructions. The absorbance was measured at 450 nm using a spectrophotometer (Spark, Tecan).

SMILES | IC50 [1] [nM] | CC50 at 65 h [2] [nM] | viability at 65 h, 100 µM [2] [%]
COc1ncc(N(Cc2cc(C(F)(F)F)[nH]n2)C(=O)Nc2cc(F)c(F)c(F)n2)cn1 [Example 224, 1-(2-methoxypyrimidin-5-yl)-1-((5-(trifluoromethyl)-1H-pyrazol-3-yl)methyl)-3-(4,5,6-trifluoropyridin-2-yl)urea] | 210 | > 100000 | 100
CCOCCc1c(CN(C(=O)Nc2ccc(F)cc2)c2ccc(OC)nc2)n[nH]c1C(F)(F)F [Example 182, 1-((4-(2-ethoxyethyl)-5-(trifluoromethyl)-1H-pyrazol-3-yl)methyl)-3-(4-fluorophenyl)-1-(6-methoxypyridin-3-yl)urea] | > 1100 | > 100000 | 104
Cn1ccc(N(Cc2n[nH]c3c2CCCO3)C(=O)Nc2ccc(F)c(Cl)c2)n1 [Example 25, 3-(3-chloro-4-fluorophenyl)-1-(1-methyl-1H-pyrazol-3-yl)-1-((1,4,5,6-tetrahydropyrano[2,3-c]pyrazol-3-yl)methyl)urea] | > 1100 | > 100000 | 100
COc1ncc(N(Cc2cc(C(F)(F)F)[nH]n2)C(=O)Nc2ccc(C#N)c(C(F)F)c2)cn1 [Example 152, 3-(4-cyano-3-(difluoromethyl)phenyl)-1-(2-methoxypyrimidin-5-yl)-1-((5-(trifluoromethyl)-1H-pyrazol-3-yl)methyl)urea] | 26 | > 100000 | 82.7
COc1ccc(N(Cc2cc(C(F)F)[nH]n2)C(=O)Nc2ccc(F)c(Cl)c2)nn1 [Example 97, 3-(3-chloro-4-fluorophenyl)-1-((5-(difluoromethyl)-1H-pyrazol-3-yl)methyl)-1-(6-methoxypyridazin-3-yl)urea] | > 1100 | > 100000 | 86.2
CS(=O)(=O)Nc1ccc(N(Cc2n[nH]c3c2CCOC3)C(=O)Nc2ccc(F)c(Cl)c2)cn1 [Example 17, N-(5-(3-(3-chloro-4-fluorophenyl)-1-((1,4,5,7-tetrahydropyrano[3,4-c]pyrazol-3-yl)methyl)ureido)pyridin-2-yl)methanesulfonamide] | > 1100 | > 100000 | 
COc1ncc(N(Cc2n[nH]c(C(F)(F)F)c2C(C)(C)O)C(=O)Nc2ccc(F)c(Cl)c2)cn1 [Example 102, 3-(3-chloro-4-fluorophenyl)-1-((4-(2-hydroxypropan-2-yl)-5-(trifluoromethyl)-1H-pyrazol-3-yl)methyl)-1-(2-methoxypyrimidin-5-yl)urea] | > 1100 | > 66000 | 3.8
Cn1cc(N(Cc2n[nH]c3c2CCCC3)C(=O)Nc2ccc(F)c(Cl)c2)cn1 [Example 24, 3-(3-chloro-4-fluorophenyl)-1-(1-methyl-1H-pyrazol-4-yl)-1-((4,5,6,7-tetrahydro-1H-indazol-3-yl)methyl)urea] | 160 | > 100000 | 53.4
COc1ncc(N(Cc2cc(C(F)(F)F)[nH]n2)C(=O)Nc2cc(F)ccn2)cn1 [Example 187, 3-(4-fluoropyridin-2-yl)-1-(2-methoxypyrimidin-5-yl)-1-((5-(trifluoromethyl)-1H-pyrazol-3-yl)methyl)urea] | > 1100 | > 100000 | 
COc1ncc(N(Cc2cc(C#N)[nH]n2)C(=O)Nc2ccc(C#N)c(Cl)c2)cn1 [Example 9] | 310 | > 100000 | 105
COc1ncc(N(Cc2n[nH]c(C(F)(F)F)c2CC(C)O)C(=O)Nc2ccc(F)c(C(F)F)c2)cn1 (stereo not shown) [Example 199, 3-(3-(difluoromethyl)-4-fluorophenyl)-1-((4-(2-hydroxypropyl)-5-(trifluoromethyl)-1H-pyrazol-3-yl)methyl)-1-(2-methoxypyrimidin-5-yl)urea] | 750 | > 100000 | 95.7
